Test results taken from US20250084044A1, “PROTOPORPHYRINOGEN OXIDASE INHIBITORS” (Enko Chem, Inc., priority 2022, published 2025).

Assays:
Assay type in all cases: in vivo
Kochia scoparia (KCHSC) [1] = test: Post-emergence herbicidal activity, KCHSC; conditions: 7 days after treatment, Table 3b
Procedure: (§1) Selected compounds of the invention were screened at 100 PPM against Amaranthus retroflexus (AMARE), Echinochloa crus-galli (ECHCG), Kochia scoparia (KCHSC), and Setaria italica (SETIT).
(§2) Accordingly, PPO susceptible weed seeds were sown in 5″ 5″ pots by quadrant containing Miracle-Gro potting mix (Scotts Miracle-Gro Company, Marysville, OH, USA) and grown in a Conviron growth chamber with appropriate growth conditions (temperature of 26/22° C. with photoperiod 16/8 h light day/night and light intensity of 300 μmol m^2 s^−1 supplemented by LED lamps). Relative humidity in the growth chamber was maintained at around 65%. Plants were grown until 2-4 leaf stage and thinned to 5-8 plants per quadrant per species.
(§3) Compounds were formulated in 25% Acetone, 1% Crop oil concentrate (COC-Agridex), 0.1% Tween-20, and 2.5% Ammonium sulphate (AMS). Three replicate pots were treated with each compound. Treatment consisting of the above formulation excluding active compound was applied as a treatment control (TC). Plants were treated with the test compound solution in a laboratory spray chamber fitted with 8003 flat fan nozzles calibrated to deliver 187-200 L ha^−1 at 269 kPa. Plants were placed back in the growth chamber and evaluated for % visual injury compared to TC 7 days after treatment (DAT). The data presented in Table 3 indicate a percentage control, where 100% control indicates complete inhibition of growth.

[2] = tested on: Echinochloa crus-galli (ECHCG); test: Post-emergence herbicidal activity, ECHCG; conditions: 7 days after treatment; for Post-emergence (100 ppm) ECHCG: Table 3b; for pest or weed control at 100 ppm: Echinochloa crus-galli, 168 h, Table 3a
Procedure: (§4) Selected compounds of the invention were screened at 100 PPM against Amaranthus retroflexus (AMARE), Setaria italica (SETIT), and Echinochloa crus-galli (ECHCG). […]
as §3, with “growth. […]” for “growth.”

[3] = tested on: Amaranthus retroflexus (AMARE); test: Pre-emergence herbicidal activity, AMARE; conditions: 7 days after treatment
Excerpt: (§5) Selected compounds of the invention were screened at 200 PPM against Amaranthus retroflexus (AMARE). Echinochloa crus-galli (ECHCG). Kochia scoparia (KCHSC), and Selaria italica (SETIT).
(§6) Accordingly, PPO susceptible weed seeds were planted in 5″×5″ pots by quadrant containing custom field soil mix (Sandy loam with 4.7% OM, pH 7.0) and covered with a fine layer of the same soil. Compounds were formulated in 25% Acetone, 1% Crop oil concentrate (COC-Agridex), 0.1% Tween-20, and 2.5% Ammonium sulphate (AMS). Three replicate pots were treated with each compound. Treatment consisting of the above formulation excluding active compound was applied as a treatment control (TC). Pots were treated with the test compound solution in a laboratory spray chamber fitted with 8003 flat fan nozzles calibrated to deliver 187-200 L ha^−1 at 269 kPa. Compound was incorporated into the soil by simulating rainfall equivalent to 0.2 mm using the same track sprayer. Subsequently, pots were irrigated from the bottom until assessed for % growth and germination inhibition. Pots were placed back in the growth chamber and evaluated for % growth and germination inhibition compared to TC 7 days after treatment (DAT). Growth conditions are similar to the ones mentioned in POST emergence assay.
(§7) The data presented in Table 4 indicate a percentage control, where 100% control indicates complete inhibition of growth.

Setaria italica (SETIT) [4] = test: Pre-emergence herbicidal activity, SETIT; conditions: 7 days after treatment
Excerpt: as §5, §6, §7

[5] = tested on: Amaranthus retroflexus (AMARE); test: Post-emergence herbicidal activity, AMARE; conditions: 7 days after treatment; for Post-emergence (100 ppm) AMARE: Table 3b; for pest or weed control at 100 ppm: Amaranthus retroflexus, 168 h, Table 3a
Procedure: as §4
as §3, with “growth. […]” for “growth.”

[6] = tested on: Echinochloa crus-galli (ECHCG); test: Pre-emergence herbicidal activity, ECHCG; conditions: 7 days after treatment
Excerpt: as §5, §6, §7

Kochia scoparia (KCHSC) [7] = test: Pre-emergence herbicidal activity, KCHSC; conditions: 7 days after treatment
Excerpt: as §5, §6, §7

Setaria italica (SETIT) [8] = test: Post-emergence herbicidal activity, SETIT; conditions: 7 days after treatment; for Post-emergence (100 ppm) SETIT: Table 3b; for pest or weed control at 100 ppm: Setaria italica, 168 h, Table 3a
Procedure: Selected compounds of the invention were screened at 100 PPM against Amaranthus retroflexus (AMARE), Setaria italica (SETIT), and Echinochloa crus-galli (ECHCG).
as §2, with “5″×5″” for “5″ 5″”, “OH.” for “OH,”, “m^−2” for “m^2”
as §3, §1, §2

Compound: COC(=O)[C@H](OC)N1C(=O)C(F)(F)Oc2cc(F)c(-c3c(F)c(F)c(F)c(F)c3F)cc21 [Compound 185, methyl (S)-2-methoxy-2-(2,2,7-trifluoro-3-oxo-6-(perfluorophenyl)-2,3-dihydro-4H-benzo[b][1,4]oxazin-4-yl)acetate]
- Post-emergence (100 ppm) KCHSC (Kochia scoparia (KCHSC) [1]): 100%
- Post-emergence (100 ppm) ECHCG [2]: 50%
- Pre-emergence (200 ppm) AMARE [3]: 100%
- Pre-emergence (200 ppm) SETIT (Setaria italica (SETIT) [4]): 100%
- Post-emergence (100 ppm) AMARE [5]: 100%
- Pre-emergence (200 ppm) ECHCG [6]: 43%
- Pre-emergence (200 ppm) KCHSC (Kochia scoparia (KCHSC) [7]): 83%
- Post-emergence (100 ppm) SETIT (Setaria italica (SETIT) [8]): 100%

Compound: C[C@@H](C(=O)O)N1C(=O)C(F)(F)Oc2cc(F)c(-c3c(F)c(F)c(F)c(F)c3F)cc21 [Compound 11, (S)-2-(2,2,7-trifluoro-3-oxo-6-(perfluorophenyl)-2,3-dihydro-4H-benzo[b][1,4]oxazin-4-yl)propanoic acid]
- pest or weed control at 100 ppm [2]: 83%
- pest or weed control at 100 ppm [5]: 95%
- pest or weed control at 100 ppm (Setaria italica (SETIT) [8]): 96%

Compound: COC(=O)[C@@H]1CCCN1C(=O)CN1C(=O)C(F)(F)Oc2cc(F)c(-c3c(F)c(F)c(F)c(F)c3F)cc21 [Compound 74, methyl (2-(2,2,7-trifluoro-3-oxo-6-(perfluorophenyl)-2,3-dihydro-4H-benzo[b][1,4]oxazin-4-yl)acetyl)-L-prolinate]
- pest or weed control at 100 ppm [2]: 33%
- pest or weed control at 100 ppm [5]: 100%
- pest or weed control at 100 ppm (Setaria italica (SETIT) [8]): 100%

Compound: COC(=O)[C@@H](C)N1C(=O)C(F)(F)Oc2cc(F)c(-c3c(F)cc(F)c(F)c3F)cc21 [Compound 77, methyl (2R)-2-(2,2,7-trifluoro-3-oxo-6-(2,3,4,6-tetrafluorophenyl)-2,3-dihydro-4H-benzo[b][1,4]oxazin-4-yl)propanoate]
- Post-emergence (100 ppm) KCHSC (Kochia scoparia (KCHSC) [1]): 100%
- Post-emergence (100 ppm) ECHCG [2]: 88%
- pest or weed control at 100 ppm [2]: 88%
- Pre-emergence (200 ppm) AMARE [3]: 100%
- Pre-emergence (200 ppm) SETIT (Setaria italica (SETIT) [4]): 70%
- Post-emergence (100 ppm) AMARE [5]: 100%
- pest or weed control at 100 ppm [5]: 100%
- Pre-emergence (200 ppm) ECHCG [6]: 3%
- Pre-emergence (200 ppm) KCHSC (Kochia scoparia (KCHSC) [7]): 0%
- Post-emergence (100 ppm) SETIT (Setaria italica (SETIT) [8]): 98%
- pest or weed control at 100 ppm (Setaria italica (SETIT) [8]): 98%

Compound: CN(CC(=O)O)C(=O)CN1C(=O)C(F)(F)Oc2cc(F)c(-c3c(F)c(F)c(F)c(F)c3F)cc21 [Compound 85, N-methyl-N-(2-(2,2,7-trifluoro-3-oxo-6-(perfluorophenyl)-2,3-dihydro-4H-benzo[b][1,4]oxazin-4-yl)acetyl)glycine]
- pest or weed control at 100 ppm [2]: 25%
- pest or weed control at 100 ppm [5]: 100%
- pest or weed control at 100 ppm (Setaria italica (SETIT) [8]): 88%

Compound: COC(=O)CCNC(=O)[C@H](C)N1C(=O)C(F)(F)Oc2cc(F)c(-c3c(F)c(F)c(F)c(F)c3F)cc21 [Compound 130, methyl (S)-3-(2-(2,2,7-trifluoro-3-oxo-6-(perfluorophenyl)-2,3-dihydro-4H-benzo[b][1,4]oxazin-4-yl)propanamido)propanoate]
- pest or weed control at 100 ppm [2]: 92%
- pest or weed control at 100 ppm [5]: 100%
- pest or weed control at 100 ppm (Setaria italica (SETIT) [8]): 100%

Compound: C[C@@H](C(=O)O)N1C(=O)C(F)(F)Oc2cc(F)c(-c3c(F)cc(F)c(F)c3F)cc21 [Compound 78, (2S)-2-(2,2,7-trifluoro-3-oxo-6-(2,3,4,6-tetrafluorophenyl)-2,3-dihydro-4H-benzo[b][1,4]oxazin-4-yl)propanoic acid]
- Post-emergence (100 ppm) KCHSC (Kochia scoparia (KCHSC) [1]): 93%
- Post-emergence (100 ppm) ECHCG [2]: 70%
- pest or weed control at 100 ppm [2]: 70%
- Pre-emergence (200 ppm) AMARE [3]: 100%
- Pre-emergence (200 ppm) SETIT (Setaria italica (SETIT) [4]): 18%
- Post-emergence (100 ppm) AMARE [5]: 100%
- pest or weed control at 100 ppm [5]: 100%
- Pre-emergence (200 ppm) ECHCG [6]: 5%
- Pre-emergence (200 ppm) KCHSC (Kochia scoparia (KCHSC) [7]): 60%
- Post-emergence (100 ppm) SETIT (Setaria italica (SETIT) [8]): 100%
- pest or weed control at 100 ppm (Setaria italica (SETIT) [8]): 100%

Compound: COC(=O)[C@@H](C)N1C(=O)C(F)(F)Oc2cc(F)c(-c3c(F)c(F)c(F)c(F)c3F)cc21 [Compound 8, methyl (R)-2-(2,2,7-trifluoro-3-oxo-6-(perfluorophenyl)-2,3-dihydro-4H-benzo[b][1,4]oxazin-4-yl)propanoate]
- pest or weed control at 100 ppm [2]: 45%
- pest or weed control at 100 ppm [5]: 80%
- pest or weed control at 100 ppm (Setaria italica (SETIT) [8]): 75%

Compound: COC(=O)CCNC(=O)[C@@H](C)N1C(=O)C(F)(F)Oc2cc(F)c(-c3c(F)c(F)c(F)c(F)c3F)cc21 [Compound 131, methyl (R)-3-(2-(2,2,7-trifluoro-3-oxo-6-(perfluorophenyl)-2,3-dihydro-4H-benzo[b][1,4]oxazin-4-yl)propanamido)propanoate]
- pest or weed control at 100 ppm [2]: 15%
- pest or weed control at 100 ppm [5]: 100%
- pest or weed control at 100 ppm (Setaria italica (SETIT) [8]): 83%

Compound: COC(=O)C1CN(C(=O)CN2C(=O)C(F)(F)Oc3cc(F)c(-c4c(F)c(F)c(F)c(F)c4F)cc32)C1 [Compound 86, methyl 1-(2-(2,2,7-trifluoro-3-oxo-6-(perfluorophenyl)-2,3-dihydro-4H-benzo[b][1,4]oxazin-4-yl)acetyl)azetidine-3-carboxylate]
- Post-emergence (100 ppm) KCHSC (Kochia scoparia (KCHSC) [1]): 11%
- Post-emergence (100 ppm) ECHCG [2]: 69%
- Pre-emergence (200 ppm) AMARE [3]: 68%
- Pre-emergence (200 ppm) SETIT (Setaria italica (SETIT) [4]): 7%
- Post-emergence (100 ppm) AMARE [5]: 100%
- Pre-emergence (200 ppm) ECHCG [6]: 5%
- Pre-emergence (200 ppm) KCHSC (Kochia scoparia (KCHSC) [7]): 27%
- Post-emergence (100 ppm) SETIT (Setaria italica (SETIT) [8]): 100%

Compound: COC(=O)CCN(C)C(=O)CN1C(=O)C(F)(F)Oc2cc(F)c(-c3c(F)c(F)c(F)c(F)c3F)cc21 [Compound 80, methyl 3-(N-methyl-2-(2,2,7-trifluoro-3-oxo-6-(perfluorophenyl)-2,3-dihydro-4H-benzo[b][1,4]oxazin-4-yl)acetamido)propanoate]
- Post-emergence (100 ppm) KCHSC (Kochia scoparia (KCHSC) [1]): 20%
- Post-emergence (100 ppm) ECHCG [2]: 75%
- pest or weed control at 100 ppm [2]: 75%
- Pre-emergence (200 ppm) AMARE [3]: 98%
- Pre-emergence (200 ppm) SETIT (Setaria italica (SETIT) [4]): 3%
- Post-emergence (100 ppm) AMARE [5]: 100%
- pest or weed control at 100 ppm [5]: 100%
- Pre-emergence (200 ppm) ECHCG [6]: 0%
- Pre-emergence (200 ppm) KCHSC (Kochia scoparia (KCHSC) [7]): 0%
- Post-emergence (100 ppm) SETIT (Setaria italica (SETIT) [8]): 93%
- pest or weed control at 100 ppm (Setaria italica (SETIT) [8]): 93%

Compound: COC(=O)CCN(C)C(=O)[C@H](C)N1C(=O)C(F)(F)Oc2cc(F)c(-c3c(F)c(F)c(F)c(F)c3F)cc21 [Compound 132, methyl (S)-3-(N-methyl-2-(2,2,7-trifluoro-3-oxo-6-(perfluorophenyl)-2,3-dihydro-4H-benzo[b][1,4]oxazin-4-yl)propanamido)propanoate]
- pest or weed control at 100 ppm [2]: 70%
- pest or weed control at 100 ppm [5]: 100%
- pest or weed control at 100 ppm (Setaria italica (SETIT) [8]): 100%
